Laboratory results published in paper PMC3161034 (BMC Cancer, 2011).
Like-named read-outs stand apart in the source and are kept apart here. Marks after values point to notes of the source that are not given here.

Legend:
[1] = test system: patients with solid tumors; test: Adverse events graded by CTCAE version 3.0, relatedness by investigator; type: in vivo, human
Procedure: Cohort enrollment could be expanded to ensure that at least 6 evaluable patients were enrolled or in the event of unresolved safety, pharmacokinetic, or other concerns. The overall sample size could be further increased if additional dose cohorts were considered justified based on the results from the dose-escalation portion of the study. For continuous endpoints, the mean, standard error or standard deviation (SD); median; 25th and 75th percentiles; and minimum and maximum were calculated. For discrete data, the frequency and percent distributions were calculated. No formal comparisons between cohorts were performed. The data were analyzed using SAS software version 8.2 (SAS Institute, Cary, NC). […] The safety analysis set included all patients who received at least 1 dose of study therapy.

[2] = test system: patients with solid tumours; set-up: method as in PMID 18971935; settings: in combination with gemcitabine; cited from earlier work
[3] = test system: cytochrome P450 (CYP) 3A4; settings: cited from earlier work
[4] = test system: patients with solid tumors
Procedure: The safety endpoint was the incidence of adverse events. Tumor response rate, as assessed by Response Evaluation Criteria in Solid Tumors (RECIST) in patients with measurable disease, was an exploratory endpoint.
Enrollment of a minimum of six evaluable patients per cohort was planned. If patients discontinued the study before week 5 for any reason other than a DLT, additional patients could be enrolled to meet this goal. The selected motesanib doses (50 mg QD, 100 mg QD, 125 mg QD, and 75 mg BID) were based on the tolerability profiles of motesanib administered as monotherapy and in combination with gemcitabine that were obtained in previous studies. The BID dosing regimen is expected to achieve higher predose motesanib concentrations in the plasma than QD dosing owing to the higher total dose administered and more frequent dosing.
Treatment continued until the end of week 48 (11 cycles), or until disease progression, death, or unacceptable toxicity occurred. Motesanib administration (in cohorts 1-4) began on day 2 of week 2 of the first cycle and continued throughout the study. Patients experiencing continuous clinical benefit (stable disease or response) at the end of 48 weeks were eligible to continue motesanib monotherapy under a separate protocol.
Patients enrolled in cohort 1 received an initial dose of motesanib of 50 mg QD. If ≤ 2 patients experienced a DLT during the first 5 weeks of treatment, enrollment into cohort 2 (motesanib 75 mg BID) and cohort 3 (motesanib 125 mg QD) began simultaneously. If ≤ 2 patients in cohort 3 experienced a DLT in the first 5 weeks of treatment, the 125-mg QD dose would be considered the target once-daily dose.
All adverse events were graded by the investigator according to National Cancer Institute Common Terminology Criteria for Adverse Events (CTCAE) version 3.0. All adverse events were classified according to relatedness to treatment and seriousness. […]

[5] = motesanib 50 mg QD + gemcitabine + erlotinib 100 mg QD, n = 7
[6] = motesanib 75 mg BID + gemcitabine + erlotinib 100 mg QD, n = 9
[7] = motesanib 100 mg QD + erlotinib 150 mg QD, n = 7
[8] = motesanib 100 mg QD + gemcitabine + erlotinib 100 mg QD, n = 8

CC1(C)CNc2cc(NC(=O)c3cccnc3NCc3ccncc3)ccc21 [motesanib]
Patients with grade ≥ 3 motesanib-related adverse events ([1]; all motesanib cohorts): Twenty-three
Grade 5 motesanib-related adverse events ([1]; human, in vivo): No grade 5 motesanib-related adverse events occurred
Motesanib-related diarrhea ([1]; human, in vivo): 19 n
Motesanib-related fatigue ([1]; human, in vivo): 12 n
Motesanib-related nausea ([1]; human, in vivo): 18 n
Motesanib-related vomiting ([1]; human, in vivo): 13 n
Patients discontinuing treatment with the drug because of adverse events ([1]; human, in vivo): 9 n
Serious motesanib-related deep vein thrombosis ([1]; human, in vivo): 2 n
Serious motesanib-related diarrhea ([1]; human, in vivo): 2 n
Serious motesanib-related nausea ([1]; human, in vivo): 5 n
Serious motesanib-related pulmonary embolism ([1]; human, in vivo): 2 n
Serious motesanib-related tumor necrosis ([1]; human, in vivo): 2 n
Serious motesanib-related vomiting ([1]; human, in vivo): 5 n
Abnormal liver function test, grade 3 (motesanib-related) [1, 5]: 0 n
Adverse events of grade 3, n (motesanib-related) [1, 5]: 0 n
Adverse events of grade 4, n (Pulmonary) [1, 5]: 1 n
Any adverse event, n (motesanib-related) [1, 5]: 3 n
Cardiac toxicity (all grade 3) [1, 5]: 0 n
Deep vein thrombosis, grade 3 (motesanib-related) [1, 5]: 0 n
Diarrhea, grade 3 (motesanib-related) [1, 5]: 0 n
Fatigue, grade 3 (motesanib-related) [1, 5]: 0 n
Febrile neutropenia, grade 4 (motesanib-related) [1, 5]: 1 n
Gallbladder toxicity [1, 5]: 0 n
Gallbladder toxicity, Grade 3 [1, 5]: 0 n
Hemorrhagic events [1, 5]: 0 n
Hemorrhagic events, Grade 3 [1, 5]: 0 n
Hypertension, highest (worst) grade: Grade 3 [1, 5]: 0 n
Nausea, grade 3 (motesanib-related) [1, 5]: 0 n
Neutropenia, grade 3 (motesanib-related) [1, 5]: 0 n
Neutropenia, grade 4 (motesanib-related) [1, 5]: 0 n
Pulmonary embolism, grade 4 (motesanib-related) [1, 5]: 0 n
Thrombophlebitis (all grade 3) [1, 5]: 0 n
Tumor necrosis, grade 3 (motesanib-related) [1, 5]: 0 n
Vomiting, grade 3 (motesanib-related) [1, 5]: 0 n
Abnormal liver function test, grade 3 (motesanib-related) [1, 6]: 0 n
Adverse events of grade 3, n (motesanib-related) [1, 6]: 3 n
Adverse events of grade 4, n (Pulmonary) [1, 6]: 1 n
Any adverse event, n (motesanib-related) [1, 6]: 7 n
Cardiac toxicity (all grade 3) [1, 6]: 0 n
Deep vein thrombosis, grade 3 (motesanib-related) [1, 6]: 0 n
Diarrhea, grade 3 (motesanib-related) [1, 6]: 0 n
Fatigue, grade 3 (motesanib-related) [1, 6]: 0 n
Febrile neutropenia, grade 4 (motesanib-related) [1, 6]: 0 n
Gallbladder toxicity [1, 6]: 0 n
Gallbladder toxicity, Grade 3 [1, 6]: 0 n
Hemorrhagic events [1, 6]: 0 n
Hemorrhagic events, Grade 3 [1, 6]: 0 n
Hypertension, highest (worst) grade: Grade 3 [1, 6]: 0 n
Nausea, grade 3 (motesanib-related) [1, 6]: 1 n
Neutropenia, grade 3 (motesanib-related) [1, 6]: 0 n
Neutropenia, grade 4 (motesanib-related) [1, 6]: 1 n
Pulmonary embolism, grade 4 (motesanib-related) [1, 6]: 0 n
Thrombophlebitis (all grade 3) [1, 6]: 0 n
Tumor necrosis, grade 3 (motesanib-related) [1, 6]: 1 n
Vomiting, grade 3 (motesanib-related) [1, 6]: 0 n
Abnormal liver function test, grade 3 (motesanib-related) [1, 7]: 0 n
Adverse events of grade 3, n (motesanib-related) [1, 7]: 3 n
Adverse events of grade 4, n (Pulmonary) [1, 7]: 0 n
Any adverse event, n (motesanib-related) [1, 7]: 7 n
Cardiac toxicity (all grade 3) [1, 7]: 0 n
Deep vein thrombosis, grade 3 (motesanib-related) [1, 7]: 0 n
Diarrhea, grade 3 (motesanib-related) [1, 7]: 2 n
Fatigue, grade 3 (motesanib-related) [1, 7]: 0 n
Febrile neutropenia, grade 4 (motesanib-related) [1, 7]: 0 n
Gallbladder toxicity, Grade 3 [1, 7]: 0 n
Hemorrhagic events, Grade 3 [1, 7]: 0 n
Hypertension, highest (worst) grade: Grade 3 [1, 7]: 0 n
Nausea, grade 3 (motesanib-related) [1, 7]: 0 n
Neutropenia, grade 3 (motesanib-related) [1, 7]: 1 n
Neutropenia, grade 4 (motesanib-related) [1, 7]: 0 n
Pulmonary embolism, grade 4 (motesanib-related) [1, 7]: 0 n
Thrombophlebitis (all grade 3) [1, 7]: 0 n
Tumor necrosis, grade 3 (motesanib-related) [1, 7]: 1 n
Vomiting, grade 3 (motesanib-related) [1, 7]: 0 n
Hemorrhagic events ([1]; motesanib 100 mg QD + erlotinib 150 mg QD, n = 7, epistaxis (grade 1)): 1^e n
Gallbladder toxicity ([1]; motesanib 100 mg QD + erlotinib 150 mg QD, n = 7, gallbladder enlargement (grade 2)): 1^c n
Abnormal liver function test, grade 3 (motesanib-related) [1, 8]: 1 n
Adverse events of grade 3, n (motesanib-related) [1, 8]: 3 n
Adverse events of grade 4, n (Pulmonary) [1, 8]: 0 n
Any adverse event, n (motesanib-related) [1, 8]: 8 n
Deep vein thrombosis, grade 3 (motesanib-related) [1, 8]: 0 n
Diarrhea, grade 3 (motesanib-related) [1, 8]: 1 n
Fatigue, grade 3 (motesanib-related) [1, 8]: 1 n
Febrile neutropenia, grade 4 (motesanib-related) [1, 8]: 0 n
Gallbladder toxicity [1, 8]: 0 n
Gallbladder toxicity, Grade 3 [1, 8]: 0 n
Hemorrhagic events [1, 8]: 0 n
Hemorrhagic events, Grade 3 [1, 8]: 0 n
Hypertension, highest (worst) grade: Grade 3 [1, 8]: 0 n
Nausea, grade 3 (motesanib-related) [1, 8]: 0 n
Neutropenia, grade 3 (motesanib-related) [1, 8]: 1 n
Neutropenia, grade 4 (motesanib-related) [1, 8]: 0 n
Pulmonary embolism, grade 4 (motesanib-related) [1, 8]: 0 n
Thrombophlebitis (all grade 3) [1, 8]: 0 n
Tumor necrosis, grade 3 (motesanib-related) [1, 8]: 0 n
Vomiting, grade 3 (motesanib-related) [1, 8]: 1 n
Cardiac toxicity (all grade 3) ([1]; motesanib 100 mg QD + gemcitabine + erlotinib 100 mg QD, n = 8, congestive heart failure and pulmonary edema): 1^f n
Target dose [2]: 125 mg QD
Effect on CYP3A4 [3]: inhibitor
Patients with dose-limiting toxicities, all cohorts ([4]; human, in vivo, 5 weeks): 11 patients
Maximum tolerated dose (MTD) ([4]; in combination with erlotinib only (150 mg QD)): 125 mg QD
Maximum tolerated dose (MTD) ([4]; in combination with gemcitabine (1000 mg/m^2 weekly) and erlotinib (100 mg QD)): 100 mg QD
